Test results published in patent US4690949A, “Therapeutic drug for dementia” (priority 1985, dated 1987).
Entries after “also recorded” stand apart in the source; their conditions may differ.

How the values were obtained:
patients with dementia [1] = experiment: Side effects in clinical study; format: in vivo
Method: (§1) Administration schedule of L-Threo-DOPS and schedule of clinical evaluation are as follows: [drawing 3]
(§2) Threo-DOPS were administered as follows; immediately after meals at 8:00, 12:00 and 17:00. Various psychological tests were performed at 10:00. The evaluations were performed on the day before and after administration of Threo-DOPS.

[2] = Acute toxicity LD50 in mice; details: mouse, in vivo
[3] = tested on: aromatic L-amino acid decarboxylase; details: cited from earlier work
parkinsonian patients = experiment: Clinical studies on parkinsonian patients; format: in vivo
decarboxylase = details: compared with L-DOPA; cited from earlier work
patients with dementia [4] = experiment: Overall clinical evaluation of effectiveness in dementia; format: in vivo
Source text: (§3) We have used following various tests: WAIS, Hasegawa's scale for intelligence, Osaka University tests for activity of daily life as well as mental functions, and records of psychological states. Furthermore, free association of letters and categories, paired memory test, Bourdon's test could safely be used to evaluate intelligence of demented patients, even with handicaps in hands or legs. We have done each test 4 times per patient at each point to evaluate the patient's mental state and thus this made us possible to get satisfactory statistical analysis.
Dementia could be classified into various clinical types according to the ethiology; such as Alzheimer's disease (AZ), senile dementia of Alzheimer type (SDAT), dementia due to the cerebral vascular diseases. We included these various types of dementia in this study.
as §1, §2
Evaluations were made as described below or by the methods used commonly.

patients with dementia [5] = experiment: Free association (letters and categories); format: in vivo; set-up: key to Free association, Letter / Free association, Category: improved; .dwnarw.: aggravated; →: unchanged
Source text: as §3, §1
Threo-DOPS were administered as follows; immediately after meals at 8:00, 12:00 and 17:00. Various psychological tests were performed at 10:00. The evaluations were performed on the day before and after administration of Threo-DOPS. […]
In this test, the subject was asked to say what would occur in mind by free association in response to the 4 letters of " " (a), " " (ka), " " (sa) and " " (ha) and the four categories of "fruits" or "vegetables", "flowers or trees", "animals" and "countries of the world" within 90 seconds and the number of words every 30 seconds was counted.

patients with dementia [6] = experiment: N test (N mental function test); format: in vivo; set-up: key to N test (change after treatment): improved; .dwnarw.: aggravated; →: unchanged
Source text: as §3, §1, §2
Inoue, O.: Medical Journal of the Osaka University 26, 375-394 (1974)

patients with dementia [7] = experiment: P300 auditory evoked brain potential; format: in vivo; set-up: key: +: appeared; -: disappeared
Method: as §1, §2
When two kinds of auditory stimuli are given randomly, a positive brain potential (P300) appears with a latency of about 300 msec in normal subjects and this response has been considered to reflect gnostic function. [Sutton, S. et al.: Science 150, 1187-1188 (1965)].
Using the method of Goodin, D. S. et al., the present inventors asked the subject to hear sounds of 1000 Hz and also 2000 Hz randomly given at intervals of about 1 second and to count the sounds of 2000 Hz which appeared 15% of the total number of sounds which were 400. The evoked potentials were averaged and totalled for each 1000 Hz and 2000 Hz stimulations and the latency and the amplitude of P300 were measured.

patients with dementia [8] = experiment: Digit symbol test (modified WAIS); format: in vivo
Source text: as §3, §1, §2
The original method of WAIS was partially modified. The test was repeated 4 times and counted time-in seconds which was required to finish one line or checked how far the subject could go along one line in 30 seconds.

patients with dementia [9] = experiment: Bourdon's test (Bourdon's delection test); format: in vivo; set-up: key to Bourdon's test (change after treatment): improved; .dwnarw.: aggravated; →: unchanged
Source text: as §3, §1, §2
3. Bourdon's delection test:
Matsumoto K and Samezima K: Introduction to Clinical Psychology Tests, Igaku Shuppan Sha (Tokyo), 1977, pp. 83-87
In this test, the original method was modified by enlarging the chart to make it easier for patients to see and conducting 4 test runs starting at different lines to investigate how far the task could be done in 30 seconds.

[10] = Clinical comparison of L-isomer and DL-form activity; format: in vivo
patients with dementia [11] = experiment: Hasegawa's scale for intelligence; format: in vivo; set-up: key to Hasegawa (change after treatment): improved; .dwnarw.: aggravated; →: unchanged; details: for Hasegawa (change after treatment): 10 percent change from pretreatment baseline score
Source text: as §3, §1, §2
An increase or decrease of 10 percent from the pretreatment baseline score was regarded as "improved" or "aggravated".

patients with dementia [12] = experiment: Related words paired memory test; format: in vivo; set-up: key to Related words paired memory test (change after treatment): improved; .dwnarw.: aggravated; →: unchanged
Source text: as §3, §1, §2
This retention test using 10 pairs of related words was conducted in 4 trials and the results were compared before and after the treatment.

[13] = Case 7, left thalamic hemorrhage (case report)
[14] = Case 9, cerebral infarction (case report)
[15] = Case 1, Alzheimer's disease (case report)

Compound: N[C@H](C(=O)O)[C@H](O)c1ccc(O)c(O)c1 (relative stereo) [DL-Threo-DOPS]
- Side effects (clinically) (patients with dementia [1]; human, in vivo): almost no side effect has been observed
- LD50 ([2]; ip): ~10000 mg/kg
- LD50 ([2]; po): ≥ 10000 mg/kg

Compound: N[C@H](C(=O)O)[C@H](O)c1ccc(O)c(O)c1 (relative stereo) [Threo-DOPS, threo-3,4-dihydroxyphenylserine]
- Conversion to norepinephrine (NE) ([3]; in the living body): decarboxylated by an action of an aromatic L-amino acid decarboxylase existing in the living body and converted into norepinephrine (NE); also recorded: gradually converted to NE in the living body
- Rate of decarboxylation relative to L-DOPA ([3]; previous study of the present applicants): considerably smaller than that of L-DOPA
- Effectiveness as a NE precursor (parkinsonian patients): effectiveness of Threo-DOPS as a NE precursor
- Side effects (patients with dementia [1]; human, in vivo): without any appreciable side effects
- Effectiveness of combined use of DCI (decarboxylase): not so effective as that for L-DOPA
- Effect on symptoms of dementia (patients with dementia [4]; summary statement): improving effect on some symptoms of dementia

Compound: N[C@@H](Cc1ccc(O)c(O)c1)C(=O)O [L-DOPA, reference compound]
- Decarboxylation to dopamine ([3]; in the living body): decarboxylated to the corresponding catecholamine, dopamine

Compound: N[C@H](C(=O)O)[C@H](O)c1ccc(O)c(O)c1 [L-Threo-DOPS]
- Free association, Category (patients with dementia [5]; Case 2, AZ): →
- Free association, Letter (patients with dementia [5]; Case 2, AZ): →
- Free association, Category (patients with dementia [5]; Case 3, CI): →
- Free association, Category (patients with dementia [5]; Case 4, CI): →
- Free association, Letter (patients with dementia [5]; Case 4, CI): →
- Free association, Category (patients with dementia [5]; Case 5, CI): →
- Free association, Letter (patients with dementia [5]; Case 5, CI): →
- Free association, Category (patients with dementia [5]; Case 6, AZ/CI, person): →
- Free association, Letter (patients with dementia [5]; Case 6, AZ/CI, person): →
- Free association of things (patients with dementia [5]; [13]): Improvements were obtained
- Free association, Category (patients with dementia [5]; Case 9, CI): →
- Free association, Letter (patients with dementia [5]; Case 9, CI): →
- N test (change after treatment) (patients with dementia [6]; Case 5, CI): →
- N test (change after treatment) (patients with dementia [6]; Case 6, AZ/CI, person): →
- N mental function test (patients with dementia [6]; [13]): Improvements were obtained
- N mental function test (patients with dementia [6]; [14]): Improvements were found
- P300 (patients with dementia [7]; Case 2, AZ): +
- P300 (patients with dementia [7]; Case 3, CI): -
- P300 (patients with dementia [7]; Case 4, CI): +
- P300 (patients with dementia [7]; Case 5, CI): -
- P300 (patients with dementia [7]; Case 6, AZ/CI, person): -
- P300 (patients with dementia [7]; [13]): could not be observed before the treatment, appeared after the treatment
- P300 (patients with dementia [7]; Case 9, CI): -
- Digit symbol test, statistics (patients with dementia [8]; Case 1, AZ): * (P<0.05)
- Digit symbol test (patients with dementia [8]; [15]): Improvements were found
- Bourdon's test (change after treatment) (patients with dementia [9]; Case 1, AZ): →
- Bourdon's test (change after treatment) (patients with dementia [9]; Case 2, AZ): →
- Bourdon's test (change after treatment) (patients with dementia [9]; Case 3, CI): →
- Bourdon's test, statistics (patients with dementia [9]; Case 4, CI): ** (P<0.02)
- Bourdon's test (change after treatment) (patients with dementia [9]; Case 6, AZ/CI, person): →
- Bourdon's test (change after treatment) (patients with dementia [9]; Case 9, CI): →
- Effect of L-isomer at half the amount of the DL-mixture ([10]; administered in half the amount of the DL-mixture): nearly the same effect as the DL-mixture
- Activity of L-isomer relative to DL-form ([10]; clinical study): twice as active as the DL-form
- Side effects (patients with dementia [1]; Case 9, cerebral infarction): No remarkable side effects were found
- Side effects (clinically) (patients with dementia [1]; human, in vivo): almost no side effect has been observed
- LD50 ([2]; ip): ~10000 mg/kg
- LD50 ([2]; po): ≥ 10000 mg/kg
- Hasegawa (change after treatment) (patients with dementia [11]; Case 3, CI): .dwnarw.
- Hasegawa (change after treatment) (patients with dementia [11]; Case 6, AZ/CI, person): →
- Hasegawa's scale (patients with dementia [11]; [13]): Improvements were obtained
- Hasegawa's scale (patients with dementia [11]; [14]): Improvements were found
- Related words paired memory test, statistics (patients with dementia [12]; Case 1, AZ): *** (P<0.01)
- Related words paired memory test (patients with dementia [12]; [15]): Improvements were found
- Related words paired memory test, statistics (patients with dementia [12]; Case 2, AZ): *** (P<0.01)
- Related words paired memory test (change after treatment) (patients with dementia [12]; Case 4, CI): →
- Related words paired memory test (change after treatment) (patients with dementia [12]; Case 5, CI): .uparw.
- Related words paired memory test, statistics (patients with dementia [12]; Case 5, CI): * (P<0.05)
- Related words paired memory test (change after treatment) (patients with dementia [12]; Case 6, AZ/CI, person): →
- Related words paired memory test, statistics (patients with dementia [12]; Case 9, CI): ** (P<0.02)
- Related words paired memory test (patients with dementia [12]; [14]): Improvements were found
- Overall evaluation (patients with dementia [4]; Case 1, Alzheimer's disease): moderately improved
- Global evaluation (patients with dementia [4]; Case 7, left thalamic hemorrhage): markedly improved
- Global evaluation (patients with dementia [4]; Case 9, cerebral infarction): moderately improved
- Evaluation parameters showing aggravation (patients with dementia [4]; Cases 1 to 9, Table 1): only a few evaluation parameters showed aggravation
- Subjects showing improvements in one or more tests (patients with dementia [4]; Cases 1 to 9, Table 1): all subjects but Case 6 showed improvements in one or more tests
- Overall evaluation: efficacy against symptoms of patients with dementia (patients with dementia [4]; as a whole): had efficacy against symptoms of patients with dementia
